Source: patent US7388027B2, “Bicyclic compounds as modulators of androgen receptor function and method” (Bristol-Myers Squibb Company, priority 2004, dated 2008)

Experiments:
[1] = test system: endogenous glucocorticoid receptor (A549 cells, AP-1 luciferase reporter); assay: In vitro assay to measure GR-induced AP-1 transrepression (luciferase reporter in A549 cells); format: cell-based; settings: concentration of ≦10 μM; 10 ng/mL PMA; 7 h; typical value
Experimental: The AP-1 assay is a cell-based luciferase reporter assay. A549 cells, which contain endogenous glucocorticoid receptor, were stably transfected with an AP-1 DNA binding site attached to the luciferase gene. Cells are then grown in RPMI+10% fetal calf serum (charcoal-treated)+Penicillin/Streptomycin with 0.5 mg/mL geneticin. Cells are plated the day before the assay at approximately 40000 cells/well. On assay day, the media is removed by aspiration and 20 μL assay buffer (RPMI without phenol red+10% FCS (charcoal-treated)+Pen/Strep) is added to each well. At this point either 20 μL assay buffer (control experiments), the compounds of the present invention (“test compounds”) (dissolved in DMSO and added at varying concentrations) or dexamethasome (100 nM in DMSO, positive control) are added to each well. The plates are then pre-incubated for 15 min at 37° C., followed by stimulation of the cells with 10 ng/mL PMA. The plates are then incubated for 7 h at 37° C. after which 40 μL luciferase substrate reagent is added to each well. Activity is measured by analysis in a luminometer as compared to control experiments treated with buffer or dexamethasome.

AR = target: T1, AR (Rattus norvegicus, UniProt P15207)
T1 sequence (P15207 1-902): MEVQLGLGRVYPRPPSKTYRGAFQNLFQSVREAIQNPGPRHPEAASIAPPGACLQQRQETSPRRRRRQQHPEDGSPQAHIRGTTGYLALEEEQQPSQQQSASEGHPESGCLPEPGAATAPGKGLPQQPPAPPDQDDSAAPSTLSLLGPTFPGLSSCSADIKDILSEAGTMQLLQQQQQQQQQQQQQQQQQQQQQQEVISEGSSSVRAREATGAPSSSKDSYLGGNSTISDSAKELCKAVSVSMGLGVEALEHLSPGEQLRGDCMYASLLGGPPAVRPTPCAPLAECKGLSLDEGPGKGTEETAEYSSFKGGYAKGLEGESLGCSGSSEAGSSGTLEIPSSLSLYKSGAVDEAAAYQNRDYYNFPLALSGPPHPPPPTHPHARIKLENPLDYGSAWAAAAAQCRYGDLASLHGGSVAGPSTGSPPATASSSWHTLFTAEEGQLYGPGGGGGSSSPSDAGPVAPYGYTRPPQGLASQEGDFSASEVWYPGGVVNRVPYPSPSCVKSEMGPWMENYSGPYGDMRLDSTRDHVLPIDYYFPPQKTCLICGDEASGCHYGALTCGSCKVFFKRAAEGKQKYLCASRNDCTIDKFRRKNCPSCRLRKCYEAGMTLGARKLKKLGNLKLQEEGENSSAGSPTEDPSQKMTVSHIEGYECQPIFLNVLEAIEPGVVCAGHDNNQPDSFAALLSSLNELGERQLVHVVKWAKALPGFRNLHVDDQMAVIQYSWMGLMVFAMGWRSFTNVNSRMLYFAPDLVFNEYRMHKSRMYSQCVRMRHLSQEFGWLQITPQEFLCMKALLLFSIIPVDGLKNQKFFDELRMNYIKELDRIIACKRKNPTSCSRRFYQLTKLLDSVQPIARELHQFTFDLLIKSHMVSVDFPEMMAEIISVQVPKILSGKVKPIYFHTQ
Description: The activity of compounds of the present invention as AR agonists was investigated in an immature male rat model, a recognized test of anabolic effects in muscle and sustaining effects in sex organs for a given compound, as described in L. G. Hershberger et al., Proc. Soc. […] Biol. Med., 83, 175 (1953); B. L. Beyler et al, “Methods for evaluating anabolic and catabolic agents in laboratory animals”, J. Amer. Med. Women's Ass., 23, 708 (1968); H. Fukuda et al., “Investigations of the levator ani muscle as an anabolic steroid assay”, Nago Dai. Yak. Ken. Nem. 14, 84 (1966) the disclosures of which are herein incorporated by reference.
The basis of this assay lies in the well-defined action of androgenic agents on the maintenance and growth of muscle tissues and sexual accessory organs in animals and man. […] J. Anat. […] I. Quantitative data” Boll.-Soc. Ital. Biol. Sper. […] II. Electron-microscopic observations” Boll.-Soc. Ital. Biol. Sper. 42, 1600 (1966); A. Boris et al., Steroids 15, 61 (1970). As described above, the effects of androgens on maintenance of male sexual accessory organs, such as the prostate and seminal vesicles, is well described. Castration results in rapid involution and atrophy of the prostate and seminal vesicles. This effect can be reversed by exogenous addition of androgens. […]

[2] = test system: wild type AR (MDA 453 cells); settings: read-out: Kd for [3H]-DHT, Scatchard analysis, 4 h at 37° C.
Experimental: For the whole-cell binding assay, human LNCaP cells (T877A mutant AR) or MDA 453 (wild type AR) in 96-well microtiter plates containing RPMI 1640 or DMEM supplemented with 10% charcoal stripped CA-FBS (Cocaleco Biologicals) respectively, were incubated at 37° C. to remove any endogenous ligand that might be complexed with the receptor in the cells.
For the saturation analysis, the difference between the total binding and the non-specific binding, was defined as specific binding. […] See e.g. D. Rodbard, Mathematics and statistics of ligand assays: an illustrated guide: In: J. Langon and J. J. Clapp, eds., Ligand Assay, Masson Publishing U.S.A., Inc., New York, pp. 45-99, (1981), the disclosure of which is herein incorporated by reference.
[formula] After correcting for non-specific binding, IC50 values were determined. […] C2C12 Mouse Myoblast Transactivation Assay

## C[C@@H]1C[C@H]2[C@@H]3CCC4=CC(=O)C=C[C@]4(C)[C@@]3(F)[C@@H](O)C[C@]2(C)[C@@]1(O)C(=O)CO [dexamethasone]
[1]
  suppression of activity (% inhibition of the reporter system vs buffer control with PMA alone): 65%

## CCC(=O)O[C@H]1CC[C@H]2[C@@H]3CCC4=CC(=O)CC[C@]4(C)[C@H]3CC[C@]12C [TP, testosterone propionate]
AR; immature castrated rats
  EC50 (increase in organ weight): ~0.03 mg
AR; organ weight increase, rats
  potency relative to free T: 10-30 fold

## tritiated dihydrotestosterone [[^3H]-DHT]
[2]
  Kd: 700 pM
